# In patent US20090233906A1, “IMIDAZOAZEPINONE COMPOUNDS” (priority 2006, published 2009):
# Tested on: human T-bet
# Assay: HEKT-bet-luc assay (normalized)
# Assay type: cell-based
# Conditions: Homo sapiens, HEK293, 24 h, normalized HEKT-bet-luc IC50; engineered HEK cells, T-box responsive luciferase reporter, compound 24 hours; normalized to reference ER-819544; read-out: IC50
# Procedure: HEKT-bet-luc assay: This assay measures a T-bet dependent reporter (luciferase) activity in engineered HEK cells that express a human T-bet and a T-box responsive element driving luciferase reporter. HEKT-bet cells were plated at 2×10^4/well in 96-well plate and compound was added into cell culture for 24 hours. Luciferase activity was measured by adding 50 μl of Steady-Glo reagent (Promega) and samples were read in Victor V reader (PerkinElmer). The activity of compound was determined by comparing compound treated samples to non-compound treated vehicle controls. The IC50 values were calculated utilizing a maximum value corresponding to the amount of luciferase in the absence of a test compound and a minimum value corresponding to a test compound value obtained at maximum inhibition.
# Determination of Normalized HEKT-bet IC50 values: Compounds were assayed in microtiter plates. Each plate included a reference compound which was ER-819544. The un-normalized IC50 value for a particular compound was divided by the IC50 value determined for the reference compound in the same microtiter plate to provide a relative potency value. The relative potency value was then multiplied by the established potency of the reference compound to provide the normalized HEKT-bet IC50 value. […] The IC50 values provided herein were obtained using this normalization method.
row,SMILES,IC50
1,CCN1C(=O)N2Cc3cc(OC)cc(OC)c3C(C)(C)C=C2C12CCN(Cc1ccccc1)CC2 [compound 819640],542 nM
2,COCCN1C(=O)N2Cc3ccoc3C(C)(C)C=C2C12CCN(Cc1cc(OC)cc(OC)c1)CC2 [compound 819698],1980 nM
3,COCCN1C(=O)N2Cc3cc(F)cc(F)c3C(C)(C)C=C2C12CCN(Cc1cc(OC)cc(OC)c1)CC2 [compound 819704],2760 nM
4,CCN1C(=O)N2Cc3cc(OC)cc(OC)c3C(C)C=C2C12CCN(Cc1ccc(C)o1)CC2 (stereo not shown) [compound 819770],267 nM
5,CCN1C(=O)N2Cc3cc(OC)c(OC)c(OC)c3C(C)C=C2C12CCN(Cc1cccc3cccnc13)CC2 (stereo not shown) [compound 819755],53 nM
6,COc1cc2c(c(OC)c1)C(C)(C)C=C1N(C2)C(=O)N(C)C12CCN(Cc1ccc3ccccc3c1)CC2 [compound 819627],1600 nM
7,CCN1C(=O)N2Cc3cc(OC)cc(OC)c3C(C)(C)C=C2C12CCN(Cc1cccc3cccnc13)CC2 [compound 819604],120 nM
8,COc1cc2c(c(OC)c1)C(C)C=C1N(C2)C(=O)N(CC=C(C)C)C12CCN(Cc1cc(C)cc(C)c1)CC2 (stereo not shown) [compound 819995],330 nM
9,COc1cccc(CN2CCC3(CC2)C2=CC(C)(C)c4c(cc(OC)cc4OC)CN2C(=O)N3C)c1 [compound 819628],360 nM
10,CCN1C(=O)N2Cc3cc(OC)cc(OC)c3C(C)C=C2C12CCN(Cc1cccc3nccnc13)CC2 (stereo not shown) [compound 819595],90 nM
11,CCN1C(=O)N2Cc3cc(OC)cc(OC)c3C(C)(C)C=C2C12CCN(Cc1cc(C)cc(C)c1)CC2 [compound 819607],500 nM
12,CCN1C(=O)N2Cc3cc(OC)cc(OC)c3C(C)(C)C=C2C12CCN(Cc1cccc(OC)c1)CC2 [compound 819646],184 nM
13,COCCN1C(=O)N2Cc3cc(OC)cc(OC)c3C(C)(C)C=C2C12CCN(Cc1ccccc1)CC2 [compound 819641],98 nM
14,CCN1C(=O)N2Cc3cc(OC)cc(OC)c3C(C)C=C2C12CCN(Cc1cccc3cnccc13)CC2 (stereo not shown) [compound 819593],140 nM
15,CCN1C(=O)N2Cc3cc(OC)cc(OC)c3C(C)(C)C=C2C12CCN(Cc1cc(OC)cc(OC)c1)CC2 [compound 819583],112 nM
16,CCN1C(=O)N2Cc3cc(OC)cc(OC)c3/C=C/C=C\2C12CCN(Cc1cc(OC)cc(OC)c1)CC2 [compound 819702],600 nM
17,COc1cc2c(c(OC)c1)C(C)C=C1N(C2)C(=O)N(CC2CC2)C12CCN(Cc1cc(C)cc(C)c1)CC2 (stereo not shown) [compound 819991],120 nM
18,COc1cc(CN2CCC3(CC2)C2=CC(C)(C)c4c(cc(OC)cc4OC)CN2C(=O)N3CCO)cc(OC)c1 [compound 819657],65 nM
19,CC=C1C=C2N(Cc3cc(OC)cc(OC)c31)C(=O)N(CC)C21CCN(Cc2cc(OC)cc(OC)c2)CC1 [compound 819651],110 nM
20,COCCN1C(=O)N2Cc3cc(OC)ccc3C(C)(C)C=C2C12CCN(Cc1cc(OC)cc(OC)c1)CC2 [compound 819655],204 nM
21,COCCN1C(=O)N2Cc3ccccc3C(C)(C)C=C2C12CCN(Cc1cc(OC)cc(OC)c1)CC2 [compound 819677],1020 nM
22,COCCN1C(=O)N2Cc3cc(OC)ccc3C(C)(C)C=C2C12CCN(Cc1ccccc1)CC2 [compound 819613],1310 nM

row,SMILES,IC50
1,CCN1C(=O)N2Cc3cc(OC)cc(OC)c3C(C)C=C2C12CCN(Cc1cc(OC)cc(OC)c1)CC2 (stereo not shown) [compound 819582],10 nM
2,COc1cccc(CN2CCC3(CC2)C2=CC(C)(C)c4c(cc(OC)cc4OC)CN2C(=O)N3Cc2ccc(-n3cccn3)cc2)c1 [compound 819650],669 nM
3,CCN1C(=O)N2Cc3cc(OC)cc(OC)c3C(C)(C)C=C2C12CCN(Cc1cccc3nccnc13)CC2 [compound 819605],260 nM
4,C=C1C=C2N(Cc3cc(OC)cc(OC)c31)C(=O)N(CC)C21CCN(Cc2cc(OC)cc(OC)c2)CC1 [compound 819703],247 nM
5,COc1cc2c(c(OC)c1OC)C(C)C=C1N(C2)C(=O)N(CCO)C12CCN(Cc1cc(C)cc(C)c1)CC2 (stereo not shown) [compound 819735],140 nM
6,COc1cccc(CN2CCC3(CC2)C2=CC(C)(C)c4c(cc(OC)cc4OC)CN2C(=O)N3CCO)c1 [compound 819648],147 nM
7,COc1cc2c(c(OC)c1)C(C)C=C1N(C2)C(=O)N(C)C12CCN(Cc1cccc3ncccc13)CC2 (stereo not shown) [compound 819688],288 nM
8,COc1cc2c(c(OC)c1)C(C)C=C1N(C2)C(=O)N(C)C12CCN(Cc1cccc3cccnc13)CC2 (stereo not shown) [compound 819689],169 nM
9,COc1cc2c(c(OC)c1)C(C)(C)C=C1N(C2)C(=O)N(C)C12CCN(Cc1cccc3ccccc13)CC2 [compound 819637],734 nM
10,CCC1C=C2N(Cc3cc(OC)cc(OC)c31)C(=O)N(CCOC)C21CCN(Cc2cc(OC)cc(OC)c2)CC1 (stereo not shown) [compound 819549],15 nM
11,COc1cc(CN2CCC3(CC2)C2=CC(C)(C)c4c(cc(OC)cc4OC)CN2C(=O)N3CCO)c(F)c(OC)c1 [compound 819724],104 nM
12,COCCN1C(=O)N2Cc3cc(OC)cc(OC)c3C(C)(C)C=C2C12CCN(Cc1cc(C)cc(C)c1)CC2 [compound 819659],68 nM
13,COc1cc(CN2CCC3(CC2)C2=CC(C)(C)c4c(cc(OC)cc4OC)CN2C(=O)N3C)cc(OC)c1 [compound 819658],141 nM
14,CCN1C(=O)N2Cc3cc(OC)cc(OC)c3C(C)(C)C=C2C12CCN(Cc1ccnc3ccccc13)CC2 [compound 819601],260 nM
15,CCC=C1C=C2N(Cc3cc(OC)cc(OC)c31)C(=O)N(CC)C21CCN(Cc2cc(OC)cc(OC)c2)CC1 [compound 819652],270 nM
16,CCN1C(=O)N2Cc3cc(OC)cc(OC)c3C(C)C=C2C12CCN(Cc1cc(Br)cc(Br)c1)CC2 (stereo not shown) [compound 819599],4710 nM
17,COc1cc(CN2CCC3(CC2)C2=CC(C)(C)c4c(cc(OC)cc4OC)CN2C(=O)N3Cc2ccccc2)cc(OC)c1 [compound 819662],898 nM
18,COCCN1C(=O)N2Cc3cc(F)ccc3C(C)(C)C=C2C12CCN(Cc1cc(OC)cc(OC)c1)CC2 [compound 819672],877 nM
19,CCN1C(=O)N2Cc3cc(OC)cc(OC)c3C(C)C=C2C12CCN(Cc1ccco1)CC2 (stereo not shown) [compound 819768],183 nM
20,CCN1C(=O)N2Cc3cc(OC)cc(OC)c3C(C)C=C2C12CCN(Cc1ccoc1)CC2 (stereo not shown) [compound 819769],190 nM
21,CCN1C(=O)N2Cc3cc(OC)cc(OC)c3C(C)(C)C=C2C12CCN(Cc1cccc3ncccc13)CC2 [compound 819602],150 nM
22,CCN1C(=O)N2Cc3cc(OC)cc(OC)c3C(C)C=C2C12CCN(Cc1cccn1C)CC2 (stereo not shown) [compound 819772],103 nM

# Same assay, conditions: Homo sapiens, HEKT-bet-luc assay; value used for normalization; read-out: established potency of the reference compound (IC50)
row,SMILES,IC50
1,COCCN1C(=O)N2Cc3cc(OC)cc(OC)c3C(C)(C)C=C2C12CCN(Cc1cc(OC)cc(OC)c1)CC2 [ER-819544],35 nM

# Same assay, conditions: normalized HEKT-bet-luc IC50; engineered HEK cells, T-box responsive luciferase reporter, compound 24 hours; normalized to reference ER-819544; read-out: IC50
row,SMILES,IC50
1,COc1cc(CN2CCC3(CC2)C2=CC(C)(C)c4c(cc(OC)cc4OC)CN2C(=O)N3CCO)cc(OC)c1 [compound 819657],124 nM
